These results are taken from paper PMC2996881 (Biochemistry, 2010).

The target of test [1] is T1, CgTHI6 (Nakaseomyces glabratus, UniProt Q6FV03).
T1 sequence (Q6FV03 1-540): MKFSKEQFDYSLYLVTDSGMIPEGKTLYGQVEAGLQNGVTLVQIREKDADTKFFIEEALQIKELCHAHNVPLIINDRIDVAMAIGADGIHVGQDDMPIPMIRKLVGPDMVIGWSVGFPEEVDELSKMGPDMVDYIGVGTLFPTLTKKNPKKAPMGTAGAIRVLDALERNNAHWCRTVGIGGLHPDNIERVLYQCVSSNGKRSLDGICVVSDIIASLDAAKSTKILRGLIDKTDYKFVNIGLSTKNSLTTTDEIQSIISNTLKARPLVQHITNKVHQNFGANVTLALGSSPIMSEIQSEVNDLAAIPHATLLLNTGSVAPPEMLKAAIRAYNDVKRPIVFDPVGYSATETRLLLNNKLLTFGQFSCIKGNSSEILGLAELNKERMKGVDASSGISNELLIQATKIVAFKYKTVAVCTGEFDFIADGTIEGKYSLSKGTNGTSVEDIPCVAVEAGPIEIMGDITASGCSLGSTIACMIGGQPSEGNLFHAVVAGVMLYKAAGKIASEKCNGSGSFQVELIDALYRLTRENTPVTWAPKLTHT
The test can be described thus: X-ray crystal structure. Type of test: binding. The conditions noted are these: ThiM (C-terminal) domain ATP site; Mg2+.

Test [2] addresses T1, CgTHI6. The test can be described thus: HPLC of Thz-P formation at […] nm. The conditions noted are these: ThiM activity; 2 mM ATP, 1.2 mM Thz, 2 mM MgSO4, room temperature, 2 h. In kind it is biochemical.
Test [3] addresses T1, CgTHI6. In words: HPLC of ThMP formation at […] nm. Type of test: biochemical. The conditions noted are these: TPS activity; 1 mM HMP-PP, 1.2 mM Thz, 2 mM ATP, 2 mM MgSO4, room temperature, 2 h.

On to `Nc1ncnc2c1ncn2[C@@H]1O[C@H](COP(=O)(O)OP(=O)(O)CP(=O)(O)O)[C@@H](O)[C@H]1O` [AMP-PCP], for which the “X-ray crystal structure (soaked, 3.3 A with Thz; 2.6 A with ThMP)” value in test [1] was “The ATP binding site is inferred from the complex containing the non-hydrolizable ATP analogue, AMP-PCP”.

Consider `Nc1ncnc2c1ncn2[C@@H]1O[C@H](COP(=O)(O)OP(=O)(O)OP(=O)(O)O)[C@@H](O)[C@H]1O` [ATP], for which, in test [2], the “HPLC of Thz-P formation at 261 nm” value is “the purified protein was incubated with Thz and ATP, formation of Thz-P was noted”.

Consider `Cc1ncc(COP(=O)(O)OP(=O)(O)O)c(N)n1` [HMP-PP, 4-amino-5-hydroxymethyl-2-methylpyrimidine pyrophosphate], for which, in test [3], the “HPLC of ThMP formation at 261 nm” value is “Incorporation of HMP-PP in the same reaction resulted in the production of ThMP”.
